# Reference: PMC7215574, “Development of Thiazolidinones as Fungal Carbonic Anhydrase Inhibitors” (International Journal of Molecular Sciences, 2020)
# Test system: T1, C. tropicalis 3 strains
# T1 construct: 3 clinical isolates
# Experiment: microbe, parasite or virus in culture
# Set-up: species or system clinical Candida isolates; broth microdilution antifungal MIC, visual growth inhibition, CLSI
# Settings: Candida tropicalis, 24 h, read-out: Tested Fungi (MIC Values μg/mL) / C. tropicalis 3 strains
# Experimental: (§1) The in vitro antifungal activities were determined by the broth microdilution method with sabouraud dextrose broth (BBL Microbiology Systems, Cockeysville, MD, USA), as recommended by the by the CLSI [43]. Ninety-six-well polystyrene microtitre plates containing serial dilutions of each compound were inoculated with each microorganism to yield the appropriate density (1–5 × 10^3 cells/mL) in a 100-μL final volume. Each plate included (i) fungi without the addition of the compound, (ii) just the medium, and (iii) just the compound. Topical and systemic antifungal reference drugs, clotrimazole and fluconazole, were inserted in the experiment. The plates were incubated for 24 h at 35 °C. […] Three independent experiments were performed in triplicate. The antimicrobial activity of these thiazolidinones was evaluated versus 24 clinical Gram-positive (S. aureus and S. epidermidis) and Gram-negative (E. coli and Enterobacter spp.) microorganisms. The antifungal activity of these derivatives was then tested versus 16 clinical fungal isolates belonging to the most relevant Candida spp. (C. albicans, C. tropicalis, C. parapsilosis, C. sakè, and C. glabrata). Prior to testing, each isolate was cultured on a selective medium to ensure purity and optimal growth, as previously reported. The isolates were routinely identified by the morphological aspects of colonies and by biochemical identification. The used clinical isolates were collected from specimens of patients at the ‘Azienda Policlinico Umberto I’ (Sapienza University of Rome) and were obtained from hematology/oncology and surgery departments, which also included an intensive care unit. In particular, the samples were isolated from the upper and lower respiratory tract, blood, and indwelling venous catheters; the isolates were identified by conventional methodologies. Participating subjects gave their written informed consent for this study.
row,Compound,MIC [µg/mL]
1,CC1S/C(=N\NC(=O)C(O)c2ccccc2)N(c2cccc(Br)c2)C1=O (centres unmarked) [4e],4 to 8
2,CC1S/C(=N\NC(=O)C(O)c2ccccc2)N(c2ccc(Br)cc2)C1=O (centres unmarked) [4f],4 to 8
3,Cc1cccc(N2C(=O)C(C)S/C2=N\NC(=O)C(O)c2ccccc2)c1 (centres unmarked) [4g],4 to 8

# Test system: T2, C. albicans 5 strains
# T2 construct: 5 clinical isolates
# Experiment: microbe, parasite or virus in culture
# Set-up: species or system clinical Candida isolates; broth microdilution antifungal MIC, visual growth inhibition, CLSI
# Settings: Candida albicans, 24 h, read-out: Tested Fungi (MIC Values μg/mL) / C. albicans 5 strains
# Experimental: as §1
row,Compound,MIC [µg/mL]
1,O=C(N/N=C1\SCC(=O)N1c1ccccc1F)C(O)c1ccccc1 (centres unmarked) [3a],4 to 8
2,O=C(N/N=C1\SCC(=O)N1c1cccc(F)c1)C(O)c1ccccc1 (centres unmarked) [3b],4 to 8
3,O=C(N/N=C1\SCC(=O)N1c1ccc(F)cc1)C(O)c1ccccc1 (centres unmarked) [3c],4 to 8
4,O=C(N/N=C1\SCC(=O)N1c1ccccc1Cl)C(O)c1ccccc1 (centres unmarked) [3d],8 to 32
5,CC1S/C(=N\NC(=O)C(O)c2ccccc2)N(c2cccc(Br)c2)C1=O (centres unmarked) [4e],4 to 16
6,CC1S/C(=N\NC(=O)C(O)c2ccccc2)N(c2ccc(Br)cc2)C1=O (centres unmarked) [4f],4 to 16
7,Cc1cccc(N2C(=O)C(C)S/C2=N\NC(=O)C(O)c2ccccc2)c1 (centres unmarked) [4g],4 to 16

# Test system: T3, C. glabrata 3 strains
# T3 construct: 3 clinical isolates
# Experiment: microbe, parasite or virus in culture
# Set-up: species or system clinical Candida isolates; broth microdilution antifungal MIC, visual growth inhibition, CLSI
# Settings: Nakaseomyces glabratus, 24 h, read-out: Tested Fungi (MIC Values μg/mL) / C. glabrata 3 strains
# Experimental: as §1
row,Compound,MIC [µg/mL]
1,O=C(N/N=C1\SCC(=O)N1c1ccccc1Cl)C(O)c1ccccc1 (centres unmarked) [3d],8 to 32
2,CC1S/C(=N\NC(=O)C(O)c2ccccc2)N(c2cccc(Br)c2)C1=O (centres unmarked) [4e],4 to 8
3,CC1S/C(=N\NC(=O)C(O)c2ccccc2)N(c2ccc(Br)cc2)C1=O (centres unmarked) [4f],4 to 8
4,Cc1cccc(N2C(=O)C(C)S/C2=N\NC(=O)C(O)c2ccccc2)c1 (centres unmarked) [4g],4 to 8

# Test system: T4, Candida sake C. sakè 3 strains
# T4 construct: 3 clinical isolates
# Experiment: microbe, parasite or virus in culture
# Set-up: species or system clinical Candida isolates; broth microdilution antifungal MIC, visual growth inhibition, CLSI
# Settings: Fermentozyma sake, 24 h; read-out: Tested Fungi (MIC Values μg/mL) / C. sakè 3 strains
# Experimental: as §1
row,Compound,MIC [µg/mL]
1,O=C(N/N=C1\SCC(=O)N1c1ccccc1Cl)C(O)c1ccccc1 (centres unmarked) [3d],8 to 32
2,CC1S/C(=N\NC(=O)C(O)c2ccccc2)N(c2cccc(Br)c2)C1=O (centres unmarked) [4e],4 to 8
3,CC1S/C(=N\NC(=O)C(O)c2ccccc2)N(c2ccc(Br)cc2)C1=O (centres unmarked) [4f],4 to 8
4,Cc1cccc(N2C(=O)C(C)S/C2=N\NC(=O)C(O)c2ccccc2)c1 (centres unmarked) [4g],4 to 8

# Biological target: T5, CgNce103 (Nakaseomyces glabratus, UniProt Q6FTL6)
# T5 construct: gene NCE103; recombinant, obtained in-house as previously reported; beta-class zinc enzyme
# T5 sequence (Q6FTL6 1-219): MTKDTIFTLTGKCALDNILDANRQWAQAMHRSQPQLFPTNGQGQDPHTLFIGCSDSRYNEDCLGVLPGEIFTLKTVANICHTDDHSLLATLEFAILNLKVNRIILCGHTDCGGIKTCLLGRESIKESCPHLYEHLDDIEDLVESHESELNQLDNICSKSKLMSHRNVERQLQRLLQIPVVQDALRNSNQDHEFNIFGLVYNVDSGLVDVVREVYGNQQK
# Experiment: stopped-flow CO2 hydrase assay
# Format: biochemical
# Settings: not given
row,Compound,Ki [µM]
1,O=C(N/N=C1\SCC(=O)N1c1ccccc1F)C(O)c1ccccc1 (centres unmarked) [3a],0.27
2,O=C(N/N=C1\SCC(=O)N1c1cccc(F)c1)C(O)c1ccccc1 (centres unmarked) [3b],0.48
3,O=C(N/N=C1\SCC(=O)N1c1ccc(F)cc1)C(O)c1ccccc1 (centres unmarked) [3c],0.38
4,O=C(N/N=C1\SCC(=O)N1c1ccccc1Cl)C(O)c1ccccc1 (centres unmarked) [3d],0.32
5,CC1S/C(=N\NC(=O)C(O)c2ccccc2)N(c2cccc(Br)c2)C1=O (centres unmarked) [4e],0.56
6,CC1S/C(=N\NC(=O)C(O)c2ccccc2)N(c2ccc(Br)cc2)C1=O (centres unmarked) [4f],0.11
7,Cc1cccc(N2C(=O)C(C)S/C2=N\NC(=O)C(O)c2ccccc2)c1 (centres unmarked) [4g],0.5

# Biological target: not listed separately
# Experiment: stopped-flow CO2 hydrase assay
# Format: biochemical, Homo sapiens
# Settings: read-out: hCA I
row,Compound,Ki [µM]
1,O=C(N/N=C1\SCC(=O)N1c1ccccc1F)C(O)c1ccccc1 (centres unmarked) [3a],> 100
2,O=C(N/N=C1\SCC(=O)N1c1cccc(F)c1)C(O)c1ccccc1 (centres unmarked) [3b],> 100
3,O=C(N/N=C1\SCC(=O)N1c1ccccc1Cl)C(O)c1ccccc1 (centres unmarked) [3d],> 100
4,CC1S/C(=N\NC(=O)C(O)c2ccccc2)N(c2ccc(Br)cc2)C1=O (centres unmarked) [4f],> 100
5,Cc1cccc(N2C(=O)C(C)S/C2=N\NC(=O)C(O)c2ccccc2)c1 (centres unmarked) [4g],> 100

# Test system: T6, C. parapsilosis 2 strains
# T6 construct: 2 clinical isolates
# Experiment: microbe, parasite or virus in culture
# Set-up: species or system clinical Candida isolates; CLSI broth microdilution MIC, Sabouraud dextrose broth, 35 °C, visual complete growth inhibition
# Settings: Lodderomyces parapsilosis, 24 h, read-out: Tested Fungi (MIC Values μg/mL) / C. parapsilosis 2 strains
# Experimental: as §1
row,Compound,MIC [µg/mL]
1,O=C(N/N=C1\SCC(=O)N1c1ccccc1F)C(O)c1ccccc1 (centres unmarked) [3a],32
2,O=C(N/N=C1\SCC(=O)N1c1cccc(F)c1)C(O)c1ccccc1 (centres unmarked) [3b],32
3,O=C(N/N=C1\SCC(=O)N1c1ccc(F)cc1)C(O)c1ccccc1 (centres unmarked) [3c],32
4,O=C(N/N=C1\SCC(=O)N1c1ccccc1Cl)C(O)c1ccccc1 (centres unmarked) [3d],32
5,CC1S/C(=N\NC(=O)C(O)c2ccccc2)N(c2cccc(Br)c2)C1=O (centres unmarked) [4e],32
6,CC1S/C(=N\NC(=O)C(O)c2ccccc2)N(c2ccc(Br)cc2)C1=O (centres unmarked) [4f],32
7,Cc1cccc(N2C(=O)C(C)S/C2=N\NC(=O)C(O)c2ccccc2)c1 (centres unmarked) [4g],32

# Test system: T1, C. tropicalis 3 strains
# Experiment: microbe, parasite or virus in culture
# Set-up: species or system clinical Candida isolates; CLSI broth microdilution MIC, Sabouraud dextrose broth, 35 °C, visual complete growth inhibition
# Settings: Candida tropicalis, 24 h, read-out: Tested Fungi (MIC Values μg/mL) / C. tropicalis 3 strains
# Remark: another data set of the same source
# Experimental: as §1
row,Compound,MIC [µg/mL]
1,O=C(N/N=C1\SCC(=O)N1c1ccccc1F)C(O)c1ccccc1 (centres unmarked) [3a],32
2,O=C(N/N=C1\SCC(=O)N1c1cccc(F)c1)C(O)c1ccccc1 (centres unmarked) [3b],32
3,O=C(N/N=C1\SCC(=O)N1c1ccc(F)cc1)C(O)c1ccccc1 (centres unmarked) [3c],32
4,O=C(N/N=C1\SCC(=O)N1c1ccccc1Cl)C(O)c1ccccc1 (centres unmarked) [3d],32

# Test system: T3, C. glabrata 3 strains
# Experiment: microbe, parasite or virus in culture
# Set-up: species or system clinical Candida isolates; CLSI broth microdilution MIC, Sabouraud dextrose broth, 35 °C, visual complete growth inhibition
# Settings: Nakaseomyces glabratus, 24 h, read-out: Tested Fungi (MIC Values μg/mL) / C. glabrata 3 strains
# Remark: another data set of the same source
# Experimental: as §1
row,Compound,MIC [µg/mL]
1,O=C(N/N=C1\SCC(=O)N1c1ccccc1F)C(O)c1ccccc1 (centres unmarked) [3a],16
2,O=C(N/N=C1\SCC(=O)N1c1cccc(F)c1)C(O)c1ccccc1 (centres unmarked) [3b],16
3,O=C(N/N=C1\SCC(=O)N1c1ccc(F)cc1)C(O)c1ccccc1 (centres unmarked) [3c],16

# Test system: T4, Candida sake C. sakè 3 strains
# Experiment: microbe, parasite or virus in culture
# Set-up: species or system clinical Candida isolates; CLSI broth microdilution MIC, Sabouraud dextrose broth, 35 °C, visual complete growth inhibition
# Settings: Fermentozyma sake, 24 h; read-out: Tested Fungi (MIC Values μg/mL) / C. sakè 3 strains
# Remark: another data set of the same source
# Experimental: as §1
row,Compound,MIC [µg/mL]
1,O=C(N/N=C1\SCC(=O)N1c1ccccc1F)C(O)c1ccccc1 (centres unmarked) [3a],16
2,O=C(N/N=C1\SCC(=O)N1c1cccc(F)c1)C(O)c1ccccc1 (centres unmarked) [3b],16
3,O=C(N/N=C1\SCC(=O)N1c1ccc(F)cc1)C(O)c1ccccc1 (centres unmarked) [3c],16

# Biological target: T7, hCA II (Homo sapiens, UniProt P00918)
# T7 construct: gene CA2; recombinant, obtained in-house as previously reported
# Experiment: stopped-flow CO2 hydrase assay
# Format: biochemical
# Settings: not given
# Excerpt: stopped-flow CO2 hydrase assay on hCA II
row,Compound,Ki [µM]
1,O=C(N/N=C1\SCC(=O)N1c1ccc(F)cc1)C(O)c1ccccc1 (centres unmarked) [3c],76.7
2,CC1S/C(=N\NC(=O)C(O)c2ccccc2)N(c2cccc(Br)c2)C1=O (centres unmarked) [4e],68.2

# Biological target: T8, hCA I (Homo sapiens, UniProt P00915)
# T8 construct: gene CA1; recombinant, obtained in-house as previously reported
# Experiment: stopped-flow CO2 hydrase assay
# Format: biochemical
# Settings: not given
# Excerpt: stopped-flow CO2 hydrase assay on hCA I
# T8 sequence (P00915 2-261): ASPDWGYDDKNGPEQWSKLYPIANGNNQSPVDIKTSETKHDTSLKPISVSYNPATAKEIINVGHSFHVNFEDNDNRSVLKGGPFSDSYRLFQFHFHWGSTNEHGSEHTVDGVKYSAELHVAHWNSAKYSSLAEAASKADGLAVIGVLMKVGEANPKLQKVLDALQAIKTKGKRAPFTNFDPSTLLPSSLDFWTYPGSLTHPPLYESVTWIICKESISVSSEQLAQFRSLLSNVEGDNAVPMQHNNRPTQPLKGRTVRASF
row,Compound,Ki [µM]
1,O=C(N/N=C1\SCC(=O)N1c1ccccc1F)C(O)c1ccccc1 (centres unmarked) [3a],> 100
2,O=C(N/N=C1\SCC(=O)N1c1cccc(F)c1)C(O)c1ccccc1 (centres unmarked) [3b],> 100
3,O=C(N/N=C1\SCC(=O)N1c1ccc(F)cc1)C(O)c1ccccc1 (centres unmarked) [3c],> 100
4,O=C(N/N=C1\SCC(=O)N1c1ccccc1Cl)C(O)c1ccccc1 (centres unmarked) [3d],> 100
5,CC1S/C(=N\NC(=O)C(O)c2ccccc2)N(c2cccc(Br)c2)C1=O (centres unmarked) [4e],> 100
6,CC1S/C(=N\NC(=O)C(O)c2ccccc2)N(c2ccc(Br)cc2)C1=O (centres unmarked) [4f],> 100
7,Cc1cccc(N2C(=O)C(C)S/C2=N\NC(=O)C(O)c2ccccc2)c1 (centres unmarked) [4g],> 100
